From patent US20250353873A1, “COMPOUNDS AND METHODS FOR MODULATING APOE EXPRESSION” (Ionis Pharmaceuticals, Inc., priority 2024, published 2025)
Strand notation (5' to 3'): a small letter for the sugar, then the base; units joined by * are phosphorothioate-linked, units joined directly phosphodiester-linked; [ ] holds rarer units or linkages, { } end groups; capitals alone tell only the bases. [ms] = mesyl phosphoramidate linkage; e = 2'-O-(2-methoxyethyl) (MOE); k = constrained ethyl (cEt); [5mC] = 5-methylcytosine; d = 2'-deoxy (DNA)

How the values were obtained:
[1] = system: human APOE RNA; experiment: Dose-dependent inhibition of human APOE RNA in HepG2 cells, electroporation, 50,000 cells per well, RT-PCR normalized to GAPDH (Example 4, Tables 8-10); type: cell-based; conditions: HepG2, electroporation
Description: Modified oligonucleotides selected from the examples above were tested at various doses in HepG2 cells. The modified oligonucleotides were tested in a series of experiments that had the same culture conditions. Each experiment is identified in separate tables below.
HepG2 cells plated at a density of 50,000 cells per well were treated by electroporation with various concentrations of modified oligonucleotide as specified in the tables below. […] APOE RNA levels were measured using the human primer probe set RTS3073 (forward sequence […], designated herein as SEQ ID NO: 7; reverse sequence CCATCAGCGCCCTCAGTT, designated herein as SEQ ID NO: 8; probe sequence […], designated herein as SEQ ID NO:9). APOE RNA levels were normalized to human GAPDH. […] Results are presented as percent APOE RNA, relative to the amount of APOE RNA in untreated control cells (UTC).

[2] = system: human APOE RNA; experiment: Dose-dependent inhibition of human APOE RNA in HepG2 cells, electroporation, 24 hours (Example 6); type: cell-based
Description: Modified oligonucleotides selected from the examples above were tested at various doses in HepG2.
HepG2 cells plated at a density of 50,000 cells per well were treated by electroporation with various concentrations of modified oligonucleotide as specified in the tables below. […] APOE RNA levels were measured using the human primer probe set RTS3073 (described herein above). APOE RNA levels were normalized to human GAPDH. Human GAPDH was amplified using human primer probe set RTS 104 (described herein above). Results are presented as percent APOE RNA, relative to the amount of APOE RNA in untreated control cells (% UTC). The half maximal inhibitory concentration (IC50) of each modified oligonucleotide was calculated in GraphPad Prism 10 (GraphPad Software, San Diego, CA) and is also presented in the tables below.

| Substance | APOE RNA (% UTC) ([1]; 5 nM, 16-hour treatment) | APOE RNA (% UTC) ([1]; 13 nM, 16-hour treatment) | APOE RNA (% UTC) ([1]; 33 nM, 16-hour treatment) | APOE RNA (% UTC) ([1]; 82 nM, 16-hour treatment) | APOE RNA (% UTC) ([1]; 205 nM, 16-hour treatment) | APOE RNA (% UTC) ([1]; 512 nM, 16-hour treatment) | APOE RNA (% UTC) ([1]; 1,280 nM, 16-hour treatment) | APOE RNA (% UTC) ([1]; 3,200 nM, 16-hour treatment) | APOE RNA (% UTC) ([1]; 8,000 nM, 16-hour treatment) | APOE RNA (% UTC) ([1]; 5 nM, 24-hour treatment) | APOE RNA (% UTC) ([1]; 13 nM, 24-hour treatment) | APOE RNA (% UTC) ([1]; 33 nM, 24-hour treatment) | APOE RNA (% UTC) ([1]; 82 nM, 24-hour treatment) | APOE RNA (% UTC) ([1]; 205 nM, 24-hour treatment) | APOE RNA (% UTC) ([1]; 512 nM, 24-hour treatment) | APOE RNA (% UTC) ([1]; 1,280 nM, 24-hour treatment) | APOE RNA (% UTC) ([1]; 3,200 nM, 24-hour treatment) | APOE RNA (% UTC) ([1]; 8,000 nM, 24-hour treatment) | APOE RNA (% UTC) ([1]; 20,000 nM, 24-hour treatment) | IC50 ([1]; 24-hour treatment) [nM] | other results |
| --- | --- | --- | --- | --- | --- | --- | --- | --- | --- | --- | --- | --- | --- | --- | --- | --- | --- | --- | --- | --- | --- |
| 1757557: mixed MOE/cEt gapmer TTGGTGAATCTTTATTAA, sugar eeeeeddddddddeekke, linkages soossssssssssooss (eT*eTeGeG*eT*dG*dA*dA*dT*d[5mC]*dT*dT*dT*eAeTkT*kA*eA) [compound 1757557] | 79 | 88 | 89 | 88 | 86 | 89 | 94 | 59 | 36 |  |  |  |  |  |  |  |  |  |  |  | APOE RNA (% UTC) ([1]; 20,000 nM, 16-hour treatment): 7 % UTC; IC50 ([1]; 16-hour treatment): 4680 nM |
| 1736518: 6-10-4 MOE gapmer CTTGGTGAATCTTTATTAAA, linkages soossszzzssssssssss (e[5mC]*eTeTeG*eG*eT*dG[ms]dA[ms]dA[ms]dT*d[5mC]*dT*dT*dT*dA*dT*eT*eA*eA*eA) [compound 1736518] |  |  |  |  |  |  |  |  |  |  |  |  |  |  |  |  |  |  |  |  | IC50 [2]: 720 nM; APOE RNA (% UTC) ([2]; 5 nM): 93 % UTC; APOE RNA (% UTC) ([2]; 13 nM): 97 % UTC; APOE RNA (% UTC) ([2]; 33 nM): 99 % UTC; APOE RNA (% UTC) ([2]; 82 nM): 83 % UTC; APOE RNA (% UTC) ([2]; 205 nM): 64 % UTC; APOE RNA (% UTC) ([2]; 512 nM): 44 % UTC; APOE RNA (% UTC) ([2]; 1,280 nM): 37 % UTC; APOE RNA (% UTC) ([2]; 3,200 nM): 31 % UTC; APOE RNA (% UTC) ([2]; 8,000 nM): 30 % UTC; APOE RNA (% UTC) ([2]; 20,000 nM): 13 % UTC |
| 1747052 (k[5mC]*dT[ms]kT*kG*dG[ms]kT*dG[ms]dA[ms]dA[ms]dT*d[5mC]*dT*dT*dT*dA[ms]dT*kT*dA[ms]dA[ms]kA; antisense) [Compound 1747052] |  |  |  |  |  |  |  |  |  | 150 | 113 | 148 | 127 | 108 | 79 | 53 | 46 | 31 | 19 | 2710 |  |
| 1747051 (k[5mC]*kT*dT[ms]kG*dG[ms]kT*dG[ms]dA[ms]dA[ms]dT*d[5mC]*dT*dT*dT*dA[ms]dT*kT*dA[ms]dA[ms]kA; antisense) [Compound 1747051] |  |  |  |  |  |  |  |  |  | 111 | 117 | 152 | 128 | 111 | 67 | 76 | 42 | 31 | 9 | 2900 |  |
| 1757566 (eA*e[5mC]eTkTkG*dG*dT*dG*dA*dA*dT*d[5mC]*dT*dT*dT*eAeTeT*eA*eA; antisense) [Compound 1757566] | 82 | 87 | 85 | 73 | 77 | 49 | 31 | 22 | 17 |  |  |  |  |  |  |  |  |  |  |  | APOE RNA (% UTC) ([1]; 20,000 nM, 16-hour treatment): 21 % UTC; IC50 ([1]; 16-hour treatment): 550 nM |
| 1766537 (eT*eTeGeGeT*dG[ms]dA[ms]dA[ms]dT*d[5mC]*dT*dT*dT[ms]dA*dT*kTkAeA*eA*e[5mC]; antisense) [Compound 1766537] | 95 | 111 | 108 | 89 | 90 | 85 | 62 | 36 | 21 |  |  |  |  |  |  |  |  |  |  |  | APOE RNA (% UTC) ([1]; 20,000 nM, 16-hour treatment): 5 % UTC; IC50 ([1]; 16-hour treatment): 2010 nM |
| 1746813 (k[5mC]*dT[ms]dT[ms]kG*dG[ms]kT*dG[ms]dA[ms]dA[ms]dT*d[5mC]*dT*dT*dT*dA[ms]dT*dT[ms]kA*kA*kA; antisense) [Compound 1746813] |  |  |  |  |  |  |  |  |  | 137 | 117 | 119 | 101 | 100 | 83 | 57 | 41 | 19 | 21 | 2250 |  |
| 1757569 (eA*e[5mC]eTkTkG*dG*dT*dG*dA*dA*dT*d[5mC]*dT*dT*dT*kAeTeT*eA*eA; antisense) [Compound 1757569] | 101 | 91 | 82 | 81 | 60 | 38 | 24 | 24 | 18 |  |  |  |  |  |  |  |  |  |  |  | APOE RNA (% UTC) ([1]; 20,000 nM, 16-hour treatment): 18 % UTC; IC50 ([1]; 16-hour treatment): 390 nM |
| 1736519: 6-10-4 MOE gapmer CTTGGTGAATCTTTATTAAA, linkages sososszzzssssssssss (e[5mC]*eTeT*eGeG*eT*dG[ms]dA[ms]dA[ms]dT*d[5mC]*dT*dT*dT*dA*dT*eT*eA*eA*eA) [compound 1736519] |  |  |  |  |  |  |  |  |  |  |  |  |  |  |  |  |  |  |  |  | IC50 [2]: 340 nM; APOE RNA (% UTC) ([2]; 5 nM): 107 % UTC; APOE RNA (% UTC) ([2]; 13 nM): 104 % UTC; APOE RNA (% UTC) ([2]; 33 nM): 91 % UTC; APOE RNA (% UTC) ([2]; 82 nM): 75 % UTC; APOE RNA (% UTC) ([2]; 205 nM): 53 % UTC; APOE RNA (% UTC) ([2]; 512 nM): 42 % UTC; APOE RNA (% UTC) ([2]; 1,280 nM): 25 % UTC; APOE RNA (% UTC) ([2]; 3,200 nM): 15 % UTC; APOE RNA (% UTC) ([2]; 8,000 nM): 16 % UTC; APOE RNA (% UTC) ([2]; 20,000 nM): 5 % UTC |
| 1746805 (k[5mC]*kT*dT[ms]kG*dG[ms]dT[ms]dG[ms]dA[ms]dA[ms]dT*d[5mC]*dT*dT*dT*dA[ms]dT*dT[ms]kA*kA*kA; antisense) [Compound 1746805] |  |  |  |  |  |  |  |  |  | 95 | 109 | 93 | 94 | 65 | 75 | 41 | 39 | 29 | 11 | 1360 |  |
| 1746785 (k[5mC]*kT*dT[ms]kG*dG[ms]dT[ms]dG[ms]dA[ms]dA[ms]dT*d[5mC]*dT*dT*dT*dA[ms]dT*kT*kA*dA[ms]kA; antisense) [Compound 1746785] |  |  |  |  |  |  |  |  |  | 90 | 93 | 97 | 84 | 83 | 53 | 48 | 29 | 8 | 35 | 1040 |  |
| 1747053 (k[5mC]*dT[ms]dT[ms]kG*kG*kT*dG[ms]dA[ms]dA[ms]dT*d[5mC]*dT*dT*dT*dA[ms]dT*kT*dA[ms]dA[ms]kA; antisense) [Compound 1747053] |  |  |  |  |  |  |  |  |  | 115 | 131 | 124 | 107 | 70 | 49 | 57 | 39 | 38 | 32 | 2170 |  |
| 1746791 (k[5mC]*dT[ms]dT[ms]kG*kG*dT[ms]dG[ms]dA[ms]dA[ms]dT*d[5mC]*dT*dT*dT*dA[ms]dT*kT*kA*dA[ms]kA; antisense) [Compound 1746791] |  |  |  |  |  |  |  |  |  | 88 | 104 | 93 | 88 | 80 | 62 | 35 | 21 | 16 | 21 | 850 |  |
